We go through four molecules from patent US20140179619A1, “POLYPEPTIDE, NUCLEOTIDE SEQUENCE THEREOF, AND METHOD FOR USING THE SAME FOR PREVENTING DNA SYNTHESIS AND INHIBITING CELL PROLIFERATION” (Wuhan Yicheng Biotech, Inc., priority 2011, published 2014).

No end group written: not given here.

For assay [1], the system named is MCF-7 (breast cancer cell line). In words: Cell cycle distribution by FCM of GFP-positive transfected cells. The assay is classed as cell-based. Particulars: Cells MCF7, GFP-positive cells sorted two days after transfection. The procedure: (§1) The impact of P15 on cell proliferation is tested with NIH/3T3 (fibroblast and eptithlial cells, purchased from American ATCC, Cat No. CRL-1658) and MCF-7 (breast cancer cell line, purchased from American ATCC, Cat No. HTB-22).
(§2) Plasmid used for experiment: pEGFP-P15 (to express fused protein P15-GFP); control plasmid: pEGFP-N1
(§3) After the plasmid for transfection and the lipofectamine reagent (purchased from American Invitrogen, Cat No. 11668) were mixed, the mixture stayed for 15 minutes at room temperature. Then the mixture was first introduced into cells (with a cell density of about 50%) cultured in DMEM without serum for 5 hours of cultivation at 37° C. and next into SBF with a mass concentration of 10% for 48 hours of cultivation. […] In addition, by the use of FCM, it was easy to separate and purify the positive fluorescent protein cells. The symbolic indicators to test cell proliferation such as cell cycle were used to study and testify the impact of P15 on cell proliferation, while in these experiments, only the cells that express fluorescent proteins were used as control group.
(§4) First, we used the above mentioned plasmid to transfect 3T3 and MCF7, and used FCM to sort the positive GFP cells transfected with DNA and analyzed the cycle distribution of these cells two days later.

The test system of another assay is NIH/3T3. Described as above. The format is cell-based. How it is done:
as §1, §2, §3, §4

The test system of another assay is Cells MCF7. Description: BrdU penetration in DNA (DNA synthesis) in transfected cells. The assay is classed as cell-based. How it is done: (§5) DNA synthesis is the symbol of cell proliferation. In the next experiment, we tested the impact of P15 on DNA synthesis. Within the 15 hours after 3T3 and MCF7 transfecting pEGFP-N 1 and expressing P15-GFP plasmid for two days, the BrdU labeled […] that can penetrate in the newly synthesized DNA chain were added in cell culture fluid. The positive GFP cells in plasmid were detected and transfected with immunofluorescence technique, and the positive rate of BrdU penetration in DNA (this reflects the rate of DNA synthesis) was ascertained.

Another assay relates to Cells 3T3. The description is as above. The format is cell-based. The procedure:
as §5

For assay [2], the system named is human granulocytic leukemia cells K562. In words: Growth of human leukemia tumor in mice. Particulars: K562 subcutaneous in mice, tumor weight vs control, injection every other day 7 times, after two weeks; PTD-P15 1 mg, Glivec 10 mcg.
Description: After 5×10^6human granulocytic leukemia cells K562 injected into the subcutaneous tissue of mice, the mice were randomly divided into five groups. […] After two weeks, the mice were killed, from which the tumors grown in the subcutaneous tissue of the mice were taken out and weighed.
Setting [3] is: Cells 3T3, GFP-positive cells sorted two days after transfection.

“P15-GFP: fused protein consisted of P15 and GFP, P15 connected to the end N of GFP, expressed from plasmid pEGFP-P15 (MPYSTELIFYIEMDP-{GFP})”: the results for the G0/G1 (in assay [1]; in the assay with NIH/3T3 (setting [3])) were 85.6% and 52.1%, respectively. Further, the G2/M came out at 3.3% in assay [1] and 25.7% in the assay on NIH/3T3 (setting [3]). The S was determined as 11.1% in assay [1] and 22.1% with NIH/3T3 (setting [3]). Also, the “Positive BrdU cells” value in the assay on Cells MCF7 (Cells MCF7, BrdU 15 hours, two days after transfection) is 5.2%; in the assay on Cells 3T3 (Cells 3T3, BrdU 15 hours, two days after transfection), 12.5%. Moreover, the Inhibition ratio with Cells MCF7 (Cells MCF7, DNA synthesis, relative to GFP) amounted to 83.4%; with Cells 3T3 (Cells 3T3, DNA synthesis, relative to GFP) it was 76.8%.
For “methionine-proline-tyrosine-serine-threonine-glutamic acid-leucine-isoleucine-phenylalanine-tyrosine-isoleucine-glutamic acid-methionine-asparaginic acid-proline [P15]”, in the assay on NIH/3T3 (expression of P15 in 3T3 and MCF7), the “impact on cell apoptosis” value is “no obvious impact on cell apoptosis”.
Regarding `Cc1ccc(NC(=O)c2ccc(CN3CCN(C)CC3)cc2)cc1Nc1nccc(-c2cccnc2)n1` [Glivec], the Inhibition ratio in assay [2] was found to be 48%.
Regarding “asparaginic acid-arginine-arginine-asparaginic acid-leucine-tyrosine-asparaginic acid-asparaginic acid-asparaginic acid-asparaginic acid-lysine-asparaginic acid-arginine-methionine-alanine-glycine-threonine-methionine [Control polypeptide]”, the Inhibition ratio in assay [2] was −2%.
